pKi: −log10 of the molar value. Calls of active or inactive are those of the source. The rule behind the calls is not given here.
Tests used:
[1] = biological target: T1, Pyridoxine-5'-phosphate oxidase (Mus musculus) (UniProt Q91XF0); assay: Inhibition of pyridoxine phosphate oxidase in mouse TA3 cells assessed as inhibition of 1 x 10^-7 M pyridoxal-induced cell growth; type: cell-based
T1 sequence (whole entry): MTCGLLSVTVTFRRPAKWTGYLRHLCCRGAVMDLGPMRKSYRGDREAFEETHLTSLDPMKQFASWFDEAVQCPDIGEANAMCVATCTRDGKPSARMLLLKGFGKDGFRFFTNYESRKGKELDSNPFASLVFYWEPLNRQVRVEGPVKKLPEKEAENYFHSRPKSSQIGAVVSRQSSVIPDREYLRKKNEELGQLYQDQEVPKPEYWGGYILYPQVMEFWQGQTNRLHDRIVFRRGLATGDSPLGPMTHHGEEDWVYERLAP

[2] = biological target: T1, Pyridoxine-5'-phosphate oxidase (Mus musculus); assay: Inhibition of pyridoxine phosphate oxidase in mouse TA3 cells assessed as inhibition of 10^-5 M pyridoxal-induced cell growth; type: cell-based
Pyridoxal kinase [3] = biological target: T2, Pyridoxal kinase (Homo sapiens, UniProt O00764); assay: Non-competitive inhibition of pyridoxal phosphokinase (unknown origin)
T2 sequence (O00764 whole entry): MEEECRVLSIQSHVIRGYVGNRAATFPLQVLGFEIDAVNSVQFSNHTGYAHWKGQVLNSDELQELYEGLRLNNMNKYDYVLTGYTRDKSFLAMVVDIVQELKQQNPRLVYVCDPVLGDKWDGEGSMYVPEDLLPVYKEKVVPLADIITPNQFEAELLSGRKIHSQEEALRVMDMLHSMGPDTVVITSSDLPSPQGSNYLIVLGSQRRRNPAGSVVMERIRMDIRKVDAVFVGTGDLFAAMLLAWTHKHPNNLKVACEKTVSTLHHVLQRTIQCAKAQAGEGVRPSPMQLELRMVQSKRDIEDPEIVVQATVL

[4] = biological target: T1, Pyridoxine-5'-phosphate oxidase (Mus musculus); assay: Inhibition of pyridoxine phosphate oxidase in mouse TA3 cells assessed as inhibition of 1 x 10^-7 M pyridoxal-induced cell growth at 10^-4 M; type: cell-based
[5] = biological target: T3, Pyridoxine-5'-phosphate oxidase (Homo sapiens) (UniProt Q9NVS9); assay: Competitive inhibition of pyridoxine phosphate oxidase (unknown origin) assessed as oxidation of pyridoxol 5'-phosphate by Lineweaver-Burk plot analysis
T3 sequence (whole entry): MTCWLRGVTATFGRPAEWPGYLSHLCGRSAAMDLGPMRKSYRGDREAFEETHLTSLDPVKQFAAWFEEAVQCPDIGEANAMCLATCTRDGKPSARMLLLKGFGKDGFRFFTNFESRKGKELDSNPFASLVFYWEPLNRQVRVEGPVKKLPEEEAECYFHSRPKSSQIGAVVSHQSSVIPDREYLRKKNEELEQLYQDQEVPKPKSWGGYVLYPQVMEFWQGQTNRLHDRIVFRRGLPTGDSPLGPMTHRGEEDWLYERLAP

Pyridoxal kinase [6] = biological target: T2, Pyridoxal kinase; assay: Competitive inhibition of pyridoxal phosphokinase (unknown origin)
[7] = biological target: T4, Pyridoxine-5'-phosphate oxidase (Homo sapiens, UniProt Q9NVS9); assay: Non-competitive inhibition of pyridoxine phosphate oxidase (unknown origin) assessed as oxidation of pyridoxol 5'-phosphate by Lineweaver-Burk plot analysis
T4 sequence (Q9NVS9 whole entry): T3 sequence (whole entry)

| Compound | ID50 [1] | also measured |
| --- | --- | --- |
| C=C/C=C/c1c(COCc2ccccc2)cnc(C)c1OCc1ccccc1 | 1.5 ×10⁻⁵ M | – |
| Cc1ncc(CO)c(C)c1O | 6.8 ×10⁻⁸ M | growth inhibition (GI) [2]: inactive |
| C#Cc1c(CO)cnc(C)c1O | 8 µM | pKi (Pyridoxal kinase [3]): 3.90; ID50 [2]: 9 ×10⁻⁵ M |
| CC(=O)c1c(CO)cnc(C)c1O | – | inhibition [4]: inactive |
| CC/C=C/c1c(COCc2ccccc2)cnc(C)c1OCc1ccccc1 | 1.5 ×10⁻⁵ M | – |
| Cc1ncc(COCc2ccccc2)c(/C=C/Cl)c1OCc1ccccc1 | 3 µM | – |
| Cc1ncc(CO)c(/C=C/Br)c1O | 1.2 ×10⁻⁵ M | – |
| C=Cc1c(CO)cnc(C)c1O | 0.0025 µM | inhibition [5]: Active; pKi (Pyridoxal kinase [6]): 4.65; growth inhibition (GI) [2]: inactive |
| C#Cc1c(COP(=O)(O)O)cnc(C)c1O | 3.8 µM | pKi [7]: 6.26 |
| C=C(Cl)c1c(CO)cnc(C)c1O | 9.5 µM | – |

Source: ChEMBL document CHEMBL3272067, “4-Halovinyl- and 4-ethynyl-4-deformylpyridoxal derivatives and related analogues as potentially irreversible antagonists of vitamin B6” (J Med Chem, 1977)
